From ChEMBL document CHEMBL4041531, “Design, synthesis, and biological evaluation of novel 1-oxo-1,2,3,4-tetrahydropyrazino[1,2-a]indole-3-carboxamide analogs in MCF-7 and MDA-MB-468 breast cancer cell lines” (2017)
Active and inactive are the calls of the source. The rule behind the calls is not given here.

Key:
[1] = test system: MCF7; assay: Cytotoxicity against human MCF7 cells assessed as cell viability at 30 uM after 48 hrs by MTT assay relative to control; assay type: functional; details: MCF7, 48 h, read-out: Activity
[2] = test system: MDA-MB-468; assay: Cytotoxicity against gefitinib-resistant human MDA-MB-468 cells assessed as cell viability at 30 uM after 48 hrs by MTT assay relative to control; assay type: functional; details: MDA-MB-468, 48 h, read-out: Activity
[3] = test system: MDA-MB-468; assay: Cytotoxicity against gefitinib-resistant human MDA-MB-468 cells assessed as reduction in cell viability after 48 hrs by MTT assay; assay type: functional; details: MDA-MB-468, 48 h
[4] = test system: MCF7; assay: Cytotoxicity against human MCF7 cells assessed as cell viability at 10 uM after 48 hrs by MTT assay relative to control; assay type: functional; details: MCF7, 48 h, read-out: Activity
[5] = test system: MDA-MB-468; assay: Cytotoxicity against gefitinib-resistant human MDA-MB-468 cells assessed as cell viability at 10 uM after 48 hrs by MTT assay relative to control; assay type: functional; details: MDA-MB-468, 48 h, read-out: Activity
[6] = test system: MCF7; assay: Cytotoxicity against human MCF7 cells assessed as reduction in cell viability after 48 hrs by MTT assay; assay type: functional; details: MCF7, 48 h
[7] = test system: MCF7; assay: Cytotoxicity against human MCF7 cells assessed as cell viability at 1 uM after 48 hrs by MTT assay relative to control; assay type: functional; details: MCF7, 48 h, read-out: Activity
[8] = test system: MCF7; assay: Cytotoxicity against human MCF7 cells assessed as cell viability at 3 uM after 48 hrs by MTT assay relative to control; assay type: functional; details: MCF7, 48 h, read-out: Activity
[9] = Selectivity ratio of GI50 for human MCF7 cells to GI50 for gefitinib-resistant human MDA-MB-468 cells; assay type: functional
[10] = test system: MCF7; assay: Cytotoxicity against human MCF7 cells assessed as reduction in cell viability at 1 uM after 48 hrs in presence of 1 to 10 uM gefitinib by MTT assay; assay type: functional, cell-based
[11] = test system: MDA-MB-468; assay: Cytotoxicity against gefitinib-resistant human MDA-MB-468 cells assessed as cell viability at 10 uM after 48 hrs in presence of 1 uM gefitinib by MTT assay relative to control; assay type: functional
[12] = test system: MDA-MB-468; assay: Cytotoxicity against gefitinib-resistant human MDA-MB-468 cells assessed as cell viability at 3 uM after 48 hrs in presence of 1 uM gefitinib by MTT assay relative to control; assay type: functional
[13] = test system: MDA-MB-468; assay: Cytotoxicity against gefitinib-resistant human MDA-MB-468 cells assessed as cell viability at 1 uM after 48 hrs in presence of 1 uM gefitinib by MTT assay relative to control; assay type: functional; details: MDA-MB-468, 48 h, read-out: Activity
[14] = test system: MDA-MB-468; assay: Cytotoxicity against gefitinib-resistant human MDA-MB-468 cells assessed as cell viability at 10 uM after 48 hrs in presence of 3 uM gefitinib by MTT assay relative to control; assay type: functional
[15] = test system: MDA-MB-468; assay: Cytotoxicity against gefitinib-resistant human MDA-MB-468 cells assessed as cell viability at 3 uM after 48 hrs in presence of 3 uM gefitinib by MTT assay relative to control; assay type: functional; details: MDA-MB-468, 48 h, read-out: Activity
[16] = test system: MDA-MB-468; assay: Cytotoxicity against gefitinib-resistant human MDA-MB-468 cells assessed as cell viability at 1 uM after 48 hrs in presence of 3 uM gefitinib by MTT assay relative to control; assay type: functional
[17] = test system: MDA-MB-468; assay: Cytotoxicity against gefitinib-resistant human MDA-MB-468 cells assessed as cell viability at 10 uM after 48 hrs in presence of 10 uM gefitinib by MTT assay relative to control; assay type: functional; details: MDA-MB-468, 48 h, read-out: Activity
[18] = test system: MDA-MB-468; assay: Cytotoxicity against gefitinib-resistant human MDA-MB-468 cells assessed as cell viability at 3 uM after 48 hrs in presence of 10 uM gefitinib by MTT assay relative to control; assay type: functional
[19] = test system: MDA-MB-468; assay: Cytotoxicity against gefitinib-resistant human MDA-MB-468 cells assessed as cell viability at 1 uM after 48 hrs in presence of 10 uM gefitinib by MTT assay relative to control; assay type: functional
[20] = test system: MDA-MB-468; details: Homo sapiens, at 10 µM
Description: Inhibition of EGFR in gefitinib-resistant human MDA-MB-468 cells assessed as reduction in Akt phosphorylation at 10 uM after 6 hrs by Western blot method

[21] = test system: MDA-MB-468; details: Homo sapiens, at 10 µM; remark: listed apart in the source
Description: Inhibition of EGFR in gefitinib-resistant human MDA-MB-468 cells assessed as reduction in Akt phosphorylation at 10 uM after 18 hrs by Western blot method

[22] = test system: MCF7; assay: Potency index, ratio of gefitinib GI50 to compound GI50 for human MCF7 cells; assay type: functional

Row | SMILES | viability at 30 µM [1] [%] | viability at 30 µM [2] [%] | GI50 [3] [µM] | other results
1 | COC(=O)[C@H]1Cn2c(cc3ccccc32)C(=O)N1 | 79.7 | 82.4 |  | 
2 | C=CCN1C(=O)c2cc3ccccc3n2C[C@H]1C(=O)NCc1ccco1 |  |  | 18.5 | viability at 10 µM [4]: 98.2%; viability at 10 µM [5]: 58.4%
3 | O=C1N[C@H](C(=O)NCc2ccc(Cl)cc2)Cn2c1cc1ccccc12 | 66.1 | 60.3 |  | 
4 | COC(=O)[C@@H]1Cn2c(cc3ccccc32)C(=O)N1 | 85.1 | 102 |  | 
5 | O=C1N[C@H](C(=O)NCc2ccco2)Cn2c1cc1ccccc12 | 62.1 | 39.7 | 23.1 | 
6 | CCCCCCNC(=O)[C@@H]1Cn2c(cc3ccccc32)C(=O)N1 | 71.2 | 61.8 |  | 
7 | O=C1N[C@H](C(=O)NCc2ccccc2)Cn2c1cc1ccccc12 | 71.4 | 48.8 | 28.9 | 
8 | O=C1N[C@H](C(=O)O)Cn2c1cc1ccccc12 | 99.7 | 76.2 |  | 
9 | COc1cccc(CNC(=O)[C@@H]2Cn3c(cc4ccccc43)C(=O)N2)c1 | 68.6 | 70.5 |  | 
10 | O=C(NCc1cccc(Cl)c1)[C@@H]1Cn2c(cc3ccccc32)C(=O)N1Cc1ccccc1 |  |  | 9.5 | GI50 [6]: 8.3 µM; viability at 10 µM [4]: 38.2%; viability at 10 µM [5]: 46.7%
11 | CNC(=O)[C@@H]1Cn2c(cc3ccccc32)C(=O)N1 | 77.5 | 82.6 |  | 
12 | COc1cc2ncnc(Nc3ccc(F)c(Cl)c3)c2cc1OCCCN1CCOCC1 [GEFITINIB] | 16.2 | 6.7 | 9.7 | GI50 [6]: 20.8 µM; viability at 10 µM [4]: 89.7%; viability at 10 µM [5]: 49.1%; viability at 1 µM [7]: 73.1%; viability at 3 µM [8]: 72.6%
13 | O=C1N[C@H](C(=O)NC2CCCCC2)Cn2c1cc1ccccc12 | 80.7 | 73.1 |  | 
14 | O=C1N[C@H](C(=O)NCCc2ccc(O)cc2)Cn2c1cc1ccccc12 | 85.5 | 63.1 |  | 
15 | CC(C)NC(=O)[C@@H]1Cn2c(cc3ccccc32)C(=O)N1 | 84.4 | 88.1 |  | 
16 | CN1C(=O)c2cc3ccccc3n2C[C@H]1C(=O)NCc1ccco1 |  |  | 15 | viability at 10 µM [4]: 54.1%; viability at 10 µM [5]: 56.1%
17 | O=C1N[C@H](C(=O)NCc2cccc(C(F)(F)F)c2)Cn2c1cc1ccccc12 | 59.1 | 62.4 |  | 
18 | COc1ccc(CNC(=O)[C@@H]2Cn3c(cc4ccccc43)C(=O)N2)cc1 | 68.8 | 74.7 |  | 
19 | O=C1N[C@H](C(=O)NCc2ccc(F)cc2)Cn2c1cc1ccccc12 | 59.7 | 63.1 |  | 

Row | SMILES | viability at 30 µM [1] [%] | viability at 30 µM [2] [%] | GI50 [3] [µM] | other results
20 | Cc1cccc(CNC(=O)[C@@H]2Cn3c(cc4ccccc43)C(=O)N2)c1 | 78.1 | 66.3 |  | 
21 | COC(=O)[C@@H]1Cn2c(cc3ccccc32)C(=O)N1Cc1ccccc1 |  |  |  | viability at 10 µM [4]: 92.6%; viability at 10 µM [5]: 98.8%
22 | O=C1N[C@H](C(=O)NCc2ccc(C(F)(F)F)cc2)Cn2c1cc1ccccc12 | 60.2 | 70.5 |  | 
23 | Cc1ccc(CNC(=O)[C@@H]2Cn3c(cc4ccccc43)C(=O)N2Cc2ccccc2)o1 |  |  |  | viability at 10 µM [4]: 68.7%; viability at 10 µM [5]: 63.1%
24 | O=C1N[C@H](C(=O)NCc2cccs2)Cn2c1cc1ccccc12 | 61.7 | 39.2 |  | 
25 | CCCNC(=O)[C@@H]1Cn2c(cc3ccccc32)C(=O)N1 | 83.9 | 88 |  | 
26 | Cc1ccc(CNC(=O)[C@@H]2Cn3c(cc4ccccc43)C(=O)N2)cc1 | 68 | 61.5 |  | 
27 | O=C1N[C@H](C(=O)Nc2ccccc2)Cn2c1cc1ccccc12 | 87.3 | 74.5 |  | 
28 | C=CCNC(=O)[C@@H]1Cn2c(cc3ccccc32)C(=O)N1 | 104 | 94.7 |  | 
29 | O=C1N[C@@H](C(=O)NCc2ccccc2)Cn2c1cc1ccccc12 | 61.8 | 45 | 24 | 
30 | O=C(NCc1ccco1)[C@@H]1Cn2c(cc3ccccc32)C(=O)N1Cc1ccccc1 |  |  | 5.2 | GI50 [6]: 19.3 µM; viability at 10 µM [4]: 58.5%; viability at 10 µM [5]: 23.3%; RatioGI50 [9]: 3.7; Activity [10]: Active; Activity [11]: 24.3%; Activity [12]: 40.5%; viability at 1 µM [13]: 66.3%; viability at 1 µM [7]: 93.6%; viability at 3 µM [8]: 62.5%; Activity [14]: 19.6%; viability at 3 µM [15]: 34.3%; Activity [16]: 61%; viability at 10 µM [17]: 15.6%; Activity [18]: 23.8%; Activity [19]: 40.8%; inhibition [20]: Active; inhibition [21]: Active
31 | Cc1ccc(CNC(=O)[C@@H]2Cn3c(cc4ccccc43)C(=O)N2)o1 | 60.2 | 43 |  | 
32 | O=C(NCc1ccccc1)[C@@H]1Cn2c(cc3ccccc32)C(=O)N1Cc1ccccc1 |  |  | 7.6 | GI50 [6]: 9.6 µM; viability at 10 µM [4]: 47.1%; viability at 10 µM [5]: 28%
33 | O=C(NCc1cccs1)[C@@H]1Cn2c(cc3ccccc32)C(=O)N1Cc1ccccc1 |  |  | 3.8 | GI50 [6]: 4.6 µM; viability at 10 µM [4]: 35.8%; viability at 10 µM [5]: 18.5%; RatioGI50 [22]: 4.5; inhibition [20]: Active; inhibition [21]: Active
34 | Nc1ccc(CNC(=O)[C@@H]2Cn3c(cc4ccccc43)C(=O)N2)cc1 | 76 | 65.4 |  | 
35 | O=C1N[C@H](C(=O)NCc2cccc(Cl)c2)Cn2c1cc1ccccc12 | 61.7 | 34.8 | 23.4 | 
36 | O=C1N[C@@H](C(=O)NCc2ccco2)Cn2c1cc1ccccc12 | 82.5 | 21.2 | 15.9 | 
37 | Nc1cccc(CNC(=O)[C@@H]2Cn3c(cc4ccccc43)C(=O)N2)c1 | 70.5 | 67.7 |  | 
